Experimental data reported in US20100087649A1, “QUINOLINONE DERIVATIVES” (priority 2006, published 2010).

Assays:
[1] = test system: wild-type HIV-IIIB strain; assay: Antiviral analysis EGFP: anti-HIV activity in MT4 LTR-EGFP cells; assay type: cell-based, HIV-1; conditions: fluorescence of HIV-infected cells reduced by 50%, three days after infection
Protocol: The compounds of the present invention were tested for anti-viral activity in a cellular assay, which was performed according to the following procedure.
The human T-cell line MT4 is engineered with Green Fluorescent Protein (GFP) and an HIV-specific promoter, HIV-1 long terminal repeat (LTR). This cell line is designated MT4 LTR-EGFP, and can be used for the in vitro evaluation of anti-HIV activity of investigational compounds. In HIV-1 infected cells, the Tat protein is produced which upregulates the LTR promotor and finally leads to stimulation of the GFP reporter production, allowing measuring ongoing HIV-infection fluorometrically.
(§1) Effective concentration values such as 50% effective concentration (EC50) can be determined and are usually expressed in μM. An EC50 value is defined as the concentration of test compound that reduces the fluorescence of HIV-infected cells by 50%. The 50% cytotoxic concentration (CC50 in μM) is defined as the concentration of test compound that reduces fluorescence of the mock-infected cells by 50%. The ratio of CC50 to EC50 is defined as the selectivity index (SI) and is an indication of the selectivity of the anti-HIV activity of the inhibitor. The ultimate monitoring of HIV-1 infection and cytotoxicity is done using a scanning microscope. Image analysis allows very sensitive detection of viral infection. Measurements are done before cell necrosis, which usually takes place about five days after infection, in particular measurements are performed three days after infection.
The following Table 5 lists EC50 values, expressed in micromole/liter, against wild-type HIV-IIIB strain, for a selected number of compounds of the invention.

[2] = test system: MT4 CMV-EGFP cells; assay: Cytotoxicity in mock-infected MT4 CMV-EGFP cells; assay type: cell-based, human; conditions: fluorescence reduced by 50%
Excerpt: Analogously, MT4 cells are engineered with GFP and the constitutional cytomegalovirus (CMV) promotor. This cell line is designated MT4 CMV-EGFP, and can be used for the in vitro evaluation of cytotoxicity of investigational compounds. In this cell line, GFP levels are comparably to those of infected MT4 LTR-EGFP cells. Cytotoxic investigational compounds reduce GFP levels of mock-infected MT4 CMV-EGFP cells.
as §1

With N#Cc1cc2ccc(-c3ccccn3)cc2n(-c2ccc([N+](=O)[O-])cc2)c1=O [compound 82] as the compound, how does the EC50 [1] read?
Its EC50 is 0.54 µM.

What about the CC50 [2] of the same compound?
Its CC50 is greater than 100 µM.

COc1ccc2c(N)c(C#N)c(=O)n(-c3ccc([N+](=O)[O-])cc3)c2c1 [compound 116] was tested. Which EC50 [1] did it give?
The EC50 was 0.78 µM.

And the CC50 [2]?
Its CC50 is greater than 100 µM.

How did the EC50 [1] turn out when N#Cc1cc2ccc(OCCCN)cc2n(-c2ccc(Cl)nc2)c1=O [compound 92] was run?
Its EC50 is 8.55 µM.

And the CC50 [2]?
The CC50 was greater than 32 µM.

What does the source list for N#Cc1c(NCCCO)c2ccccc2n(-c2ccc([N+](=O)[O-])cc2)c1=O [compound 138]?
EC50 [1]: 12 µM; CC50 [2]: > 100 µM

How did the EC50 [1] turn out when N#Cc1cc2ccc(-c3cncs3)cc2n(-c2ccc([N+](=O)[O-])cc2)c1=O [compound 77] was run?
The EC50 was 0.34 µM.

And the CC50 [2]?
The CC50 was 25.8 µM.

Which EC50 [1] does the source give for Cc1ccc(-n2c(=O)c(C#N)cc3ccc(-c4cccc(CN(C)C)c4)cc32)cc1C#N [compound 152] here?
The EC50 was 0.58 µM.

And the CC50 [2]?
Its CC50 is 3.95 µM.

For N#Cc1c(N)c2ccc(C(F)(F)F)cc2n(-c2ccc([N+](=O)[O-])cc2)c1=O [compound 114], which EC50 [1] is on record?
The EC50 was 3.94 µM.

And the CC50 [2]?
The CC50 was greater than 100 µM.

What does the source list for N#Cc1cc2ccc(OCCCN3CCCC3)cc2n(-c2ccc([N+](=O)[O-])cc2)c1=O [compound 73]?
EC50 [1]: 0.42 µM; CC50 [2]: 36.4 µM

Which results are given for N#Cc1cc2ccc(-c3cc[nH]c3)cc2n(-c2ccc([N+](=O)[O-])cc2)c1=O [compound 44]?
EC50 [1]: 0.19 µM; CC50 [2]: > 100 µM

Which EC50 [1] does the source give for Cc1ccc(-n2c(=O)c(C#N)cc3ccc(-c4cccc(CO)c4)cc32)cc1C#N [compound 156] here?
The EC50 was 2.58 µM.

What about the CC50 [2] of the same compound?
The CC50 was 64.9 µM.

How did the EC50 [1] turn out when N#Cc1cc2ccc(OCCCO)cc2n(-c2ccc([N+](=O)[O-])cc2)c1=O [compound 76] was run?
The EC50 was 1.03 µM.

What about the CC50 [2] of the same compound?
Its CC50 is greater than 100 µM.

Which EC50 [1] does the source give for CN(C)CCNc1c(C#N)c(=O)n(-c2ccc([N+](=O)[O-])cc2)c2ccccc12 [compound 142] here?
Its EC50 is 3.28 µM.

And the CC50 [2]?
Its CC50 is 54.7 µM.

With N#Cc1cc2ccc(OCCCN3CCCCC3)cc2n(-c2ccc([N+](=O)[O-])cc2)c1=O [compound 67] as the compound, how does the EC50 [1] read?
Its EC50 is 1.17 µM.

What about the CC50 [2] of the same compound?
Its CC50 is greater than 32 µM.

For N#Cc1cc2ccccc2n(-c2ccc(Cl)nc2)c1=O [compound 4], which EC50 [1] is on record?
Its EC50 is greater than 32 µM.

What about the CC50 [2] of the same compound?
Its CC50 is greater than 32 µM.

Which EC50 [1] does the source give for N#Cc1c(N)c2ccc(Cl)cc2n(-c2cccc([N+](=O)[O-])c2)c1=O [compound 112] here?
The EC50 was 5.63 µM.

And the CC50 [2]?
Its CC50 is greater than 100 µM.

Which EC50 [1] does the source give for N#Cc1c(N)c2ccc(Cl)cc2n(-c2ccc([N+](=O)[O-])cc2)c1=O [compound 102] here?
Its EC50 is 0.85 µM.

And the CC50 [2]?
Its CC50 is greater than 32 µM.

For N#Cc1c(N)c2cc3c(cc2n(-c2ccc(Cl)nc2)c1=O)OCO3 [compound 117], which EC50 [1] is on record?
The EC50 was greater than 32 µM.

And the CC50 [2]?
Its CC50 is greater than 32 µM.

How did the EC50 [1] turn out when Cc1ccc(-n2c(=O)c(C#N)c(N)c3ccc(Cl)cc32)cc1C#N [compound 162] was run?
Its EC50 is 0.87 µM.

What about the CC50 [2] of the same compound?
The CC50 was greater than 100 µM.

For N#Cc1cc2cc(OC[C@@H]3CCCN3)ccc2n(-c2ccc([N+](=O)[O-])cc2)c1=O [compound 88], which EC50 [1] is on record?
The EC50 was 1.41 µM.

What about the CC50 [2] of the same compound?
Its CC50 is 6.54 µM.

Which EC50 [1] does the source give for N#Cc1ccc(-n2c(=O)c(C#N)cc3ccccc32)cc1 [compound 2] here?
The EC50 was greater than 32 µM.

What about the CC50 [2] of the same compound?
Its CC50 is greater than 32 µM.

Which EC50 [1] does the source give for N#Cc1cc2ccc(NCC3CCNC3)cc2n(-c2ccc([N+](=O)[O-])cc2)c1=O (stereo not drawn) [compound 18] here?
The EC50 was 4.43 µM.

And the CC50 [2]?
The CC50 was greater than 32 µM.

What does the source list for N#Cc1cc2ccc(NCCN)cc2n(-c2ccc([N+](=O)[O-])cc2)c1=O [compound 16]?
EC50 [1]: 1.55 µM; CC50 [2]: > 32 µM

Which EC50 [1] does the source give for Cc1ccc(-n2c(=O)c(C#N)cc3ccc(Cl)cc32)cc1C#N [compound 161] here?
The EC50 was 6.1 µM.

And the CC50 [2]?
Its CC50 is greater than 100 µM.

Which results are given for N#Cc1cc2cc(OCCN3CCCC3)ccc2n(-c2ccc([N+](=O)[O-])cc2)c1=O [compound 89]?
EC50 [1]: 1.57 µM; CC50 [2]: > 32 µM

Which results are given for N#Cc1cc2ccc(NCCN3CCOCC3)cc2n(-c2ccc([N+](=O)[O-])cc2)c1=O [compound 14]?
EC50 [1]: 4.08 µM; CC50 [2]: > 32 µM

Which results are given for N#Cc1cc2ccc(OCCN3CCNCC3)cc2n(-c2ccc([N+](=O)[O-])cc2)c1=O [compound 61]?
EC50 [1]: 3.65 µM; CC50 [2]: > 32 µM

How did the EC50 [1] turn out when N#Cc1cc2ccc(-c3ccc[nH]3)cc2n(-c2ccc([N+](=O)[O-])cc2)c1=O [compound 34] was run?
Its EC50 is 0.25 µM.

What about the CC50 [2] of the same compound?
The CC50 was 32.3 µM.
